Results published in ChEMBL document CHEMBL1150662, “A new digalactosyl diacylglycerol from a cultured marine dinoflagellate Heterocapsa circularisquama” (J Nat Prod, 2002).

Test: Cytotoxicity against oysters heart cells at 0.5 ug/ml
Assay type: cell-based
Conditions: ostreidae

CC/C=C\C/C=C\C/C=C\C/C=C\C/C=C\CC(=O)OC[C@H](CO[C@@H]1O[C@H](CO)[C@H](O)[C@H](O)[C@H]1O)OC(=O)C/C=C\C/C=C\C/C=C\C/C=C\C/C=C\CC
Activity: Toxic

CC/C=C\C/C=C\C/C=C\C/C=C\C/C=C\CC(=O)OC[C@H](CO[C@@H]1O[C@H](CO[C@H]2O[C@H](CO)[C@H](O)[C@H](O)[C@H]2O)[C@H](O)[C@H](O)[C@H]1O)OC(=O)CCCC/C=C\C/C=C\C/C=C\C/C=C\CC
Activity: Toxic

CC/C=C\C/C=C\C/C=C\C/C=C\C/C=C\CC(=O)OC[C@H](CO[C@@H]1O[C@H](CO)[C@H](O)[C@H](O)C1O)OC(=O)CCCC/C=C\C/C=C\C/C=C\C/C=C\CC (single isomer, unassigned)
Activity: Toxic
